The text below walks through data of patent publication US20240278014A1, “METHODS AND PHARMACEUTICAL FORMULATIONS FOR MODULATING THE PROPERTIES OF THE BLOOD LABYRINTH BARRIER” (Cochlear Limited, priority 2021, published 2024).

For data set [1] the following is noted: guinea pig, in vivo, iv. As to the method:
Fluorescein (20 mM) was administered through a cannula in the jugular vein by continuous intravenous (IV) injection at a rate of 20 μL/minute. […] Implants were placed through a cochleostomy into the basal turn of the scala tympani. Perilymph sampling began two hours after IV infusion began, and the concentration of fluorescein in the perilymph was used as a proxy for BLB permeability. Sampling in the perilymph was accomplished as follows: The cochlear apex was prepared for fluid sampling by building a hydrophobic cup of silicone adhesive around it. When the apex was perforated, the emerging fluid collected in the cup without loss into the middle ear. Ten samples were collected in sequence, with each taking 60 to 90 seconds. […] Fluorescein concentrations were compared for implanted versus non-implanted […], and from ears of non-implanted control animals.

Data set [2] in a line: Perilymph fluorescein as proxy for BLB permeability after cochlear implantation. The format is in vivo, guinea pigs. Conditions: on average; same animal; perilymph sampled two hours after start of IV infusion. An excerpt:
In some embodiments, methods for assessing a more permeable than normal blood labyrinth barrier (but not treating it or preventing it from becoming more permeable) involve injecting a pharmaceutical formulation functioning as a marker into the blood stream of a recipient, measuring the amount of formulation in the perilymph as a function of time. As the barrier becomes more permeable after implantation, the formulation may be detected in greater quantities in the perilymph. In this type of experiment, the data may be normalized to the contralateral ear (without an implant), which allows data to be collected from a single subject serving as its own “control.”
We measured the time course of BLB compromise following cochlear implantation in guinea pigs to characterize the development of increasing BLB permeability relating to the BLB disruption that surgical implantation causes.
Seven days following cochlear implantation, the perilymph was sampled at 126 minutes (non-implanted) and 127 minutes (implanted) after the start of IV fluorescein infusion began (shown in solid symbols). Open symbols show the same data corrected to a sample time beginning at 120 minutes after the start of the infusion, assuming a linear rate of entry through the BLB over time. […] Each sample time represents the mean of samples 1-6 from one ear; lines represent the group (n=5) mean. […]

The conditions of data set [3]: in vivo; cited from earlier work.

For the compound `O=C1OC2(c3ccc(O)cc3Oc3cc(O)ccc32)c2ccccc21` [Fluorescein], in data set [1], the elimination half time was determined as 11 min and the “volume of calculated time course” value was 183 mL. In data set [2], the “BLB permeability increase (perilymph fluorescein, implanted versus nonimplanted ear)” value is on record as “two- to three-fold”.
Regarding lipopolysaccharide [LPS], the “effect on BLB” value in data set [3] is on record as “induce systemic inflammation, compromising the BLB”.
